We go through 2 compounds from ChEMBL document CHEMBL4364346, “Structure optimization of a new class of PPARγ antagonists” (Bioorg Med Chem, 2019).

Data set [1] is described as follows: Plasma concentration in Swiss CD1 mouse at 1 mg/kg, ip measured upto 3 hrs by LC-MS analysis. Format: ADME, organism-based.
Data set [2] concerns the target T1, Retinoic acid receptor alpha (Homo sapiens) (UniProt P10276).
T1 sequence (whole entry): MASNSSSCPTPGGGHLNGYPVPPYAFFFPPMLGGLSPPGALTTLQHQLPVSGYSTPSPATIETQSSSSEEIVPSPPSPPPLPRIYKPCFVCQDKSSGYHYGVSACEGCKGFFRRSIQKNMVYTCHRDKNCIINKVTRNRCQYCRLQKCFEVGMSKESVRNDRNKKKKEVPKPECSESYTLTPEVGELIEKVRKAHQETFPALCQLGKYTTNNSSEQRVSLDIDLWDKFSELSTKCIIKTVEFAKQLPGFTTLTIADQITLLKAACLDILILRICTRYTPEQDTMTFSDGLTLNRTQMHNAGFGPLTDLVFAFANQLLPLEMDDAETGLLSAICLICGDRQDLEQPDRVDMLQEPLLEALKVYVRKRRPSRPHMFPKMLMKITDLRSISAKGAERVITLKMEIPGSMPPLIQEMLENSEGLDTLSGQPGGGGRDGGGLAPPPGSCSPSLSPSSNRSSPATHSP
The data set is described as follows: Agonist activity at recombinant human pFA-CMV fused RARalpha LBD transfected in HEK293T cells assessed as RARalpha activation at 1 uM incubated for 12 to 14 hrs by dual glo luciferase reporter gene assay. The format is cell-based. A general note: A reporter such as luciferase makes a cellular process visible.

A short description of data set [3]: Solubility of compound in PBS buffer pH 7.4 with 1% DMSO measured after 1 and 24 hrs. The settings on record: PBS buffer with 1% DMSO. The format is physicochemical.
Data set [4] addresses T1, Retinoic acid receptor alpha (Homo sapiens). The data set is described as follows: Antagonist activity at recombinant human pFA-CMV fused RARalpha LBD transfected in HEK293T cells assessed as reduction in tretinoin-induced RARalpha activation at 1 uM incubated for 12 to 14 hrs by dual glo luciferase reporter gene assay. The format is cell-based.
Data set [5] has as its target Oxysterols receptor LXR-alpha (Homo sapiens) (UniProt Q13133). The data set is described as follows: Antagonist activity at recombinant human pFA-CMV fused LXRalpha LBD transfected in HEK293T cells assessed as reduction in T0901317-induced LXRalpha activation at 1 uM incubated for 12 to 14 hrs by dual glo luciferase reporter gene assay.
The nature of data set [6]: Metabolic stability in Sprague-Dawley rat liver microsomes assessed as half life at […] incubated for 60 mins. The format is ADME, Microsome. For orientation: Liver microsomes are vesicles of endoplasmic reticulum, rich in cytochrome P450 enzymes.
In data set [7] the target is T2, Peroxisome proliferator-activated receptor alpha (Homo sapiens) (UniProt Q07869).
T2 sequence (whole entry): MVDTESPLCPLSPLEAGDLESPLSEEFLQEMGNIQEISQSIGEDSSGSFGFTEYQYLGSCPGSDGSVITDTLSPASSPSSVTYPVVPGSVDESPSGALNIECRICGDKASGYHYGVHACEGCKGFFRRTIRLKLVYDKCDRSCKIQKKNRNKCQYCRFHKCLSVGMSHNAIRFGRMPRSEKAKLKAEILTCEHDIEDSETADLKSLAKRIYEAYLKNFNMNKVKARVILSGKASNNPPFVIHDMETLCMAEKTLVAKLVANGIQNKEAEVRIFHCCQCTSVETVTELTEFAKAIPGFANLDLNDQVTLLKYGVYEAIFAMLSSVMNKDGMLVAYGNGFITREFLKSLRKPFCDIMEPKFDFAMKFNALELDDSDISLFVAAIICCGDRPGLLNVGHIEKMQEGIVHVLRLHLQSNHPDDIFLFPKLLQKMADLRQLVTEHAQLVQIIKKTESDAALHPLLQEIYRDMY
The data set is described as follows: Antagonist activity at recombinant human pFA-CMV fused PPARalpha LBD transfected in HEK293T cells assessed as reduction in GW7647-induced PPARalpha activation at 1 uM incubated for 12 to 14 hrs by dual glo luciferase reporter gene assay. Format: cell-based.

Data set [8] has as its target T3, Peroxisome proliferator-activated receptor gamma (Homo sapiens, UniProt P37231).
T3 sequence (P37231 whole entry): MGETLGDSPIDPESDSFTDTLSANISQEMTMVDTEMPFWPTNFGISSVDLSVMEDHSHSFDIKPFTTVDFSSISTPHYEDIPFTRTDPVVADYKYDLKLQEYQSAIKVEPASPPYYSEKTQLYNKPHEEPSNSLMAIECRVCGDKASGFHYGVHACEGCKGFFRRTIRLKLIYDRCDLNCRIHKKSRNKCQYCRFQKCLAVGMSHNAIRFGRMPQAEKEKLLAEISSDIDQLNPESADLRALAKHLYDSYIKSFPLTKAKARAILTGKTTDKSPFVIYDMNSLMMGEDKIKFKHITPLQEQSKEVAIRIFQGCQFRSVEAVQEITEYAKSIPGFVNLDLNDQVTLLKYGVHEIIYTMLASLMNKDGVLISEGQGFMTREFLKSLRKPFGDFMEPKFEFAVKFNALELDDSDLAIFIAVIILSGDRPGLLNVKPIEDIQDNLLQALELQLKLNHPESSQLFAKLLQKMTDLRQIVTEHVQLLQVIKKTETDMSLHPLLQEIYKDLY
Put plainly: Antagonist actvity in pFA-GAL4-DBD fused PPARgamma LBD (unknown origin) transfected in HEK293T cells assessed as inhibition of rosiglitazone-induced PPARgamma transactivation incubated for 24 hrs by luciferase reporter gene assay. The conditions noted are these: read-out: IC50. Format: cell-based.

In data set [9] the target is T4, Vitamin D3 receptor (Homo sapiens) (UniProt P11473).
T4 sequence (whole entry): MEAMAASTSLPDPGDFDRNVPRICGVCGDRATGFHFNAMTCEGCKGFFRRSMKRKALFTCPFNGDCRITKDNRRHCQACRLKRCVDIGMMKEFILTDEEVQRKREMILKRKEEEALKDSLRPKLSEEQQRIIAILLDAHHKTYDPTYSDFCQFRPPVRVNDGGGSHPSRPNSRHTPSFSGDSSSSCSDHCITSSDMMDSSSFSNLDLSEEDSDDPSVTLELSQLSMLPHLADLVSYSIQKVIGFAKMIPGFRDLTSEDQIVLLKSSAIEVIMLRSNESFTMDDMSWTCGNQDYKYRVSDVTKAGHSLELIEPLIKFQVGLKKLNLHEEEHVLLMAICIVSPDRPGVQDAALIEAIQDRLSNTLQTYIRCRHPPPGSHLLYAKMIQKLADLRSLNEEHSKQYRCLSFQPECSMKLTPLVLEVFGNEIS
Put plainly: Antagonist activity at recombinant human pFA-CMV fused VDR LBD transfected in HEK293T cells assessed as calcitrol-induced VDR activation at 1 uM incubated for 12 to 14 hrs by dual glo luciferase reporter gene assay. Format: cell-based.

The target in data set [10] is T2, Peroxisome proliferator-activated receptor alpha (Homo sapiens). The data set is described as follows: Agonist activity at recombinant human pFA-CMV fused PPARalpha LBD transfected in HEK293T cells assessed as PPARalpha activation at 1 uM incubated for 12 to 14 hrs by dual glo luciferase reporter gene assay. Format: cell-based.
The nature of data set [11]: AUC (0 to 4 hrs) in Swiss CD1 mouse at 10 mg/kg, ip measured upto 4 hrs by LC-MS analysis. The format is ADME, organism-based. Also noted: time < 4 hr, dose 10 mg/kg, route intraperitoneal. The conditions noted are these: in vivo.

≈ marks a conversion by molar mass, not a printed value. Calls of active or inactive are those of the source. No cut-off for these calls is given here.

Oxysterols receptor LXR-alpha (Homo sapiens), sequence (Q13133 whole entry, looked up, the tested form may be a part): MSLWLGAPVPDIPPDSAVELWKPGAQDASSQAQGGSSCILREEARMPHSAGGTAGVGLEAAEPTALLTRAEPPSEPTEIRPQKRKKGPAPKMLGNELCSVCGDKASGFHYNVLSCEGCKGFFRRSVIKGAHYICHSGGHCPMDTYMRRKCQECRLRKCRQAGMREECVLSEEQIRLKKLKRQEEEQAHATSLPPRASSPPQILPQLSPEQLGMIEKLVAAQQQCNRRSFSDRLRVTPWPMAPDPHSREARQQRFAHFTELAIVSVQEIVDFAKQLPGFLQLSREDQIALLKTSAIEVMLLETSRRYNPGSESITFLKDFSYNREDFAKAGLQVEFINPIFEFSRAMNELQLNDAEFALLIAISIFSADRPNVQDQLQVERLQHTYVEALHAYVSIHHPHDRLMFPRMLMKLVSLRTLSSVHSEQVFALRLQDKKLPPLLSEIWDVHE

The compound `CCC/C(=C\c1cc(OCc2ccc3nc(C(F)(F)F)cc(OC)c3c2)ccc1OCCN1CCN(C)CC1)C(=O)O` displayed a concentration at 3 h in data set [1] of 9.5 nM. For the same compound, the result in data set [2], in data set [4], in [5], in data set [7], in [9] and in data set [10] was inactive. Further, the solubility at 24 h in data set [3] was in the range of 200 to 250 µM (≈ 118 to 147 µg/mL). Besides, the half-life in data set [6] is greater than 1 h. The IC50 in data set [8] worked out at 4.7 µM. This compound displayed an area under the curve AUC(0-t) at 4 h in data set [11] of 598 ng·h/mL.

Consider `CCC/C(=C\c1cc(OCc2ccc3nc(C(F)(F)F)cc(OC)c3c2)ccc1OCC1CCN(C)CC1)C(=O)O`, for which, in [1], the concentration at 3 h amounted to 14 nM. Also, the result in [2], in [4], in data set [5], in data set [7], in data set [9] and in data set [10] was inactive. Moreover, in data set [3], the solubility at 24 h lay in the range of 125 to 150 µM (≈ 71.6 to 85.9 µg/mL). Moreover, the half-life in [6] is greater than 1 h. Moreover, the IC50 in [8] worked out at 2.5 µM. The compound further gave an area under the curve AUC(0-t) at 4 h in [11] of 650 ng·h/mL.

Broadly, the solubility is the dissolved amount per volume that the medium holds. A low value points to little dissolved substance. In general, half-life refers to the time in which the quantity being followed falls by half. The IC50 is the concentration at which inhibition is half-maximal. A word on the AUC(0-t): it is exposure summed from dosing to a finite time, without extrapolation to infinity. Read a low AUC(0-t) as less exposure.
